Source: patent US20160009769A1, “PROCESSES FOR ISOLATING SALICYCLIC ACID RECEPTORS” (NEOPRO LABS, LLC, priority 2013, published 2016)

Experiments:
SARP [1] = experiment: Dynamic light scattering (DLS) of SARP micelles/gel in water; type: biochemical, Sauromatum; settings: for micelle size after 20 min: 20 min after addition to 0.1 pM SARP in water; for micelle size upon addition: added to 0.1 pM SARP in water
Method: Organized droplets are seen under the light microscope when SARP solution is spread on a glass slide. Upon addition of DTT or mercaptoethanol the micelle size reduces to ˜300 nm, and after 20 min, the size increases back to ˜800 nm. […] The swelling and shrinking were discontinuous. Addition of 10 μM ATP stops the oscillation for ˜30 min. and then it is resumed at the same kinetics.
FIG. 11. SARP was purified from D-day appendices using RP-HPLC-ESI-MS. Purified SARP was solubilized in distilled water and analyzed using DLS. […] T, period.
Upon addition of water to the dry protein at a final concentration of 0.1 pM, micelles formed with a uniform size of ˜800 nm (FIG. 5). Upon addition of DTT or β-mercaptoethanol the micelle size reduced to ˜300 nm, and after 20 min, the size increased back to ˜800 nm. […] Addition of 10 μM ATP stopped the oscillation for ˜30 min. and then it resumed with the same kinetics.

SARP [2] = experiment: ESI-MS charge state distribution (conformation) of SARP from Sauromatum appendix after treatment with salicylates; set-up: species or system Sauromatum guttatum
Description: It is an aspect of the present invention to provide a method of detection and characterization of SARP using RP-HPLC/ESI-MS. This is accomplished using on-line splitting of 5 to 10% of the effluent from the UV detector to a Micromass Quattro II tandem quadrupole MS fitted with an ESI source (Waters Inc.) via a variable splitter allowing manual fraction collection. This instrument is operated in a positive ESI mode at a probe tip voltage of 3.6 kV and a cone voltage of 45 V. The source and nebulizer temperatures are maintained at 150 and 400° C., respectively, using N2 as both nebulizing and bath gas. The instrument is calibrated using water clusters over the range of 100-2400 Da with data acquisition is carried out from m/z 500 to 2000 in the continuum-scanning mode at 450 Da sec^1. Instrument tuning, mass calibration, data acquisition, processing and display are accomplished using MassLynx™ and MaxEnt™ software (Waters Inc.). This procedure provided a protein molecular mass with an accuracy of ˜0.1%.
FIG. 13. […] The ESI-MS spectra is different that that of ASA and SA. It is more expanded, lower m/z values.
Monomeric SARP undergoes a large-scale conformation transition from one state to another in the Sauromatum appendix during development. […] The concentration of SA in the appendix tissue is ˜1 μg/g fresh wt^4, and it is equivalent to ˜7 μM, within the range of this experiment.

SARP [3] = experiment: UV spectra of SARP in the presence of ligands; type: biochemical; settings: 1 pM SARP
Method: FIG. 14. UV spectra of SAR in the presence of 2,6-DHBA. Freshly dissolved SAR was incubated with 2,6-DHBA and samples were taken for spectral analysis at the same time when the effect of SA on SAR was determined. The data present acquired spectra after baseline subtraction of each compound added to SAR. Every 3 min. after the addition of SAR a spectrum was recorded. A, The first 6 spectra were downward relative to the baseline (solid line). The following spectra were upward (broken line). (ME, β-mercaptoethanol).
FIG. 15. UV spectra of SAR in the presence of GTP, SA, and ATP. Freshly dissolved SARP was incubated with GTP and samples were taken for spectral analysis. Later, ME and SA were added to the sample, and finally ATP was added to the sample. The data present acquired spectra after baseline subtraction of each compound added to SARP. […] (ME, β-mercaptoethanol).
Thus, according to certain related embodiments, UV absorbance spectra of SARP may fluctuate over time when absorbance measurements are collected over a range of wavelengths and at a plurality of time points, if a salicylate-related compound is present or, under other chemical environments as described below. […] In certain preferred embodiments the change may be detected at wavelengths from (inclusively) 190 nm to 280 nm, where it will be appreciated that selection of a suitable wavelength may vary as a function of several factors including protein concentration, solution composition (e.g., absorbance properties of buffers, salts, etc.), instrument sensitivity, and other related attributes of a spectroscopic configuration.

Sauromatum appendix = settings: cited from earlier work; for triggering of heat production: S. guttatum
SARP [4] = experiment: Reduction of tetrazolium salts by SARP in the presence of pyridine; type: biochemical; settings: tetrazolium salt 4 μM, pyridine 30%, 5 min at room temperature; mean of two determinations
Description: Additionally and as described herein, SARPs are capable of unidirectionally transferring one or two electrons to an electron acceptor such as 3-(4,5-dimethyl thiazol-2-yl-(2,5-diphenyl) tetrazolium bromide (MTT), nitro blue tetrazolium (NBT) or neotetrazolium chloride (Neo-NBT), or to ferricytochrome c.

SARP [5] = experiment: Effect of SA on the levels of SARP in the Sauromatum appendix; set-up: species or system Sauromatum guttatum; settings: D-1 appendix placed in 10 μM SA, protein extracted next morning; control in water 160
Method: In certain embodiments SARP is isolated using organic solutions. Tissues are ground n a juicer grinder in an organic extraction solution containing 50% IP, 2 mM β-mercaptoethanol, 0.5 mM EDTA, 5 mM butylated hydroxy-toluene, 0.1% tocopherol acetate, 0.1% polyvinylpoly-pyrrolidone (insoluble, Sigma-Aldrich Corp.) in 40 mM imidazole/HCl buffer, pH 7.0, at a weight/volume ratio of 1 g of tissue per 5 ml of extraction solution. The extract is centrifuged at 15,000 g for 10 min and the pellet is discarded. A strong cationic resin (DOWEX X-50, Sigma-Aldrich Corp.) is added to the supernatant (30 mg resin per ml) and stirred for 2.5 h at 4° C. The mixture is then centrifuged at 30 g for 2 min, and the supernatant is discard. The Dowex resin is washed several times, first with the extraction solution and finally with distilled water until a clear wash is obtained. Subsequently, the resin is again washed 2 times with 0.15 M phosphate buffer, pH 7.0. […] The protein solution is dialyzed using a 12-14 kDa cut-off dialysis bag against 3 L of distilled water at 4° C., the water is changed twice during 24 h. The content of the dialysis bag is removed and centrifuged at 10,000 g for 15 min. The pellet is used for SARP purification.
In certain embodiments SARP is purified using a reversed-phase high-performance liquid chromatography (RP-HPLC) on-line to elecrosray ionization-mass spectromer (ESI-MS). […]

Human SARP = experiment: ESI-MS conformation of SARP purified from SK-N-SH cells treated with SA; type: cell-based; settings: SK-N-SH cells treated with 10 μM
Description: The charge state distribution (CSD) of the human SARP is identical to its plant counterpart from the Sauromatum appendix during heat-production. […] This regulatory activity behaves as a metabolic switch that switching on and off heat-production. SARP can be a metabolic switch in the cytoplasm and mitochondria. […] However, if SA level fluctuates, SARP can be either in state B (compact) or state A (extanded) and consequently, can trigger oscillatory thermogenicity. In a more complex model, the cytoplasmic and the mitochondrial switch will have to be to be in state B. There are four possibilities for the output for both switches. When both switches are in states B, a singular event of heat-production occurs. Other options are cytoplasmic SARP in state A and mitochondrial SARP in either state A or B. Or, cytoplasmic SARP in state B and mitochondrial SARP in state A.
FIG. 16. Purification of SARP from SK-N-SH cells using perfusion chromatography. SARP was purified using RP-HPLC/ESI-MS. TIC chromatogram with solvent gradient overlay (A). Ion current chromatograms of m/z 1139 (B) and 1178, (C) corresponding to [M+30H]^30+ and […] charge states of the protein. Solvent A is 0.05% TFA in aqueous solution and solvent B is 0.05% aqueous TFA in ACN:IP at a ratio 2:1.
FIG. 17. Electrospray ionization mass spectrua of SARP from the SK-N-SH cells and Sauromatum appendix. […]

[6] = higher concentrations, 100 and 200 μM

## O[C@H](CS)[C@H](O)CS (racemic) [DTT, dithiothreitol]
SARP [1]
  micelle size after 20 min: ~800 nm
  micelle size upon addition: ~300 nm

## O=C(O)c1c(O)cccc1O [2,6-DHBA, 2,6-dihydroxybenzoic acid]
SARP [2]; D-2 and D-3 appendix sections incubated overnight in 100 μM
  ESI-MS spectra of SARP compared with ASA and SA: more expanded
SARP [2]; [6]
  conformational state of SARP: conformations that are more extended than state A
SARP [3]; incubation with NADH
  effect on UV spectrum of SARP: did not exert the same effect
Sauromatum appendix
  triggering of heat production: can also trigger heat production

## O=C(O)c1ccc(O)c(O)c1 [3,4-DHBA, 3,4-dihydroxybenzoic acid]
SARP [3]; incubation with NADH
  effect on UV spectrum of SARP: did not exert the same effect

## CC(=O)Oc1ccccc1C(=O)O [ASA, aspirin]
Sauromatum appendix
  triggering of heat production: can also trigger heat production

## Nc1ncnc2c1ncn2[C@@H]1O[C@H](COP(=O)(O)OP(=O)(O)OP(=O)(O)O)[C@@H](O)[C@H]1O [ATP]
SARP [1]; 10 μM added to oscillating SARP gel
  time the oscillation is stopped: ~30 min

## Cc1nc(-[n+]2nc(-c3ccccc3)nn2-c2ccccc2)sc1C.[Br-] [MTT]
SARP [4]
  O.D.530: 0.17

## COc1cc(-c2ccc(-n3nc(-c4ccccc4)n[n+]3-c3ccc([N+](=O)[O-])cc3)c(OC)c2)ccc1-n1nc(-c2ccccc2)n[n+]1-c1ccc([N+](=O)[O-])cc1 [NBT, nitro blue tetrazolium]
SARP [4]
  O.D.530: 0.14

## c1ccc(-c2nn(-c3ccccc3)[n+](-c3ccc(-c4ccc(-[n+]5nc(-c6ccccc6)nn5-c5ccccc5)cc4)cc3)n2)cc1 [NeoT, neotetrazolium chloride]
SARP [4]
  O.D.530: 0.06

## O=C(O)c1ccccc1O [SA, salicylic acid]
SARP [5]
  SARP (ng/g fresh wt.): 30 ng/g fresh wt.
SARP [2]; 10 μM applied to pre D-day appendices
  conformational state of SARP: induced a transition from state A in which SA undetectable in the tissue to state B
SARP [2]; [6]
  conformational state of SARP: conformations that are more extended than state A
Human SARP
  conformation of human SARP: a shift to a much more compact conformation
SARP [1]; 1 pM, molar ratio [SARP]/[SA]<0.1
  effect on micelle size: immediately decreased the micelle size
SARP [1]; after addition of 1 pM SA
  period of gel expansion/shrinking oscillation: 4 to 5 min
SARP [3]; incubation of SA and GTP and ATP
  effect on UV spectrum of SARP: appearance of new bands from 197 to 230
SARP [3]; incubation with NADH
  effect on UV spectrum of SARP: a shift in a band from 197 to 230
Sauromatum appendix; added on D-1 morning, the next morning, untreated section stays at ambient temperature
  temperature rise of appendix section: up to 32 °C

## OCCS [β-mercaptoethanol]
SARP [1]
  micelle size after 20 min: ~800 nm
  micelle size upon addition: ~300 nm
